Data published in patent US20240058363A1 (Emyria, priority 2020, published 2024).
Marks after values point to notes of the source that are not given here.

How the values were obtained:
symptoms of anxiety = assay: DASS-21 anxiety score in patients treated with CBD only (clinical data registry); assay type: in vivo, human; conditions: for DASS-21 Anxiety Score, Post 1-month follow-up Mean (Std. dev): mean days of treatment 47 (+/−23)
Description: Detailed demographic information and validated standardised questionnaires were collected as part of routine care. Written informed consent to treatment was obtained from all patients, as well as additional consent to participate in Emyria's clinical data registry, data from participating patients were anonymised, aggregated, and analysed to establish clinical efficacy.
Clinically validated tools were used to monitor patients for management of symptoms, quality of life, physical/emotional functioning, and concomitant medication usage. […] After they commenced on medicinal cannabis treatment they were initially treated with low doses and monitored for safety and efficacy of treatment before dose escalation is considered.
A potentially eligible individual who met any of the following criteria will be excluded from participation if the following criteria is met: • 1. Clinically recorded cannabis drug addiction, or cannabis use disorder including individuals with scores 8 or more on the Cannabis Use Disorder Identification Test (CUDIT). • 2. Untreated cardiovascular disease, arrhythmias (other than well controlled atrial fibrillation), or severe heart failure. • 3. History of suicide attempts or suicidal ideation. • 4. History of psychotic episode, schizophrenia or other psychotic disorders.
Patients were assessed monthly by the clinical team (doctor and nurse) and a visit schedule protocol was followed for each patient. A full medical history was conducted at the initial visit, including a detailed history of the clinical indication (including duration symptoms), comorbidities mental and cardiac health conditions, previous procedures, medications and therapies tried. Patients were reviewed as per the Schedule of Assessments (FIG. 2).
The doctors treating patients prescribed orally-based medicinal cannabis standardised products as per approval under the Therapeutic Goods Administration (TGA) through the Special Access Scheme (SAS) Category B and Authorised Prescriber (AP) scheme. The prescribing doctor will decide which product type including THC/CBD ratio and CBD only, based on TGA guidance documents (ie for pain THC/CBD type is generally prescribed) [see https://www.tga.gov.au/medicinal-cannabis-guidance-documents], but also will factor in patient's circumstances such as driving (then CBD only prescribed).
Doctors reviewed patients after the 14 day (2 week), see the Schedule of Assessments (FIG. 2). Following the 2-week dosing review where a doctor may increase/decrease the dosage or change product type, patients were then seen regularly (generally monthly) as per the Schedule of Assessments (FIG. 2). Patients taking CBD only products were prescribed either oil or capsules.

symptoms of insomnia = assay: Insomnia Severity Index (ISI) score in patients treated with CBD only; assay type: in vivo, human; design: key to Change in ISI score, Visit 1 coefficient in model with interaction terms / Change in ISI score between Visit 0 and Visit 1, by initial assessment category / Change in ISI score between Visit 0 and Visit 3 (third follow-up): change in Insomnia Severity Index (7-item self-report) score
Experimental: Insomnia may present as disturbed sleep, inability to get to sleep, inability to stay asleep and/or sleep that leaves the subject tired upon waking. The insomnia may be assessed using the Insomnia Severity Index (ISI) 7-item self-report questionnaire. […] More importantly perhaps, this global measure has been employed in number of recent clinical trials to assess the responses in insomnia to a wide variety of treatments.
Patients were assessed for inclusion/exclusion using the same screening criteria and population criteria collected for evaluation as in Example 1. Dosing regimens were the same as Example 1.
Column (1) first presents results from a pooled specification with a time specific dummy variable capturing the first follow-up visit (i.e., Visit 1) as the sole explanatory variable. […] Notice that the constant term (i.e., the intercept) reflects the average ISI score of 14.145 at baseline.
Column (2) then incorporates patient-fixed effects. Note that when including fixed effects at the person level, the constant term is dropped from the regression, as it is differenced out by the fixed effects estimator—in addition to any other (un)observable time-invariant individual characteristics which may influence ISI scores (such as personality traits or beliefs). As for our coefficient of interest, it continues to emerge as negative and statistically significant. In fact, it remains virtually unchanged from column (1) since the pooled data contains exactly two observations for each patient.
Finally, column (3) introduces interaction terms between the time dummy variable and binary indicators of starting with an ISI score in the ‘subthreshold insomnia’, ‘clinical insomnia (moderate severity)’, or ‘clinical insomnia (severe)’ category at baseline. The reference category here is determined by patients in the ‘no clinically significant insomnia’ category. Consistent with the visuals from FIG. 1, the reduction in insomnia score at the first follow-up is primarily driven by those who start in the ‘subthreshold insomnia’ category or higher at baseline.
Exploring this issue of persistence further, Table 9 presents regression-equation checks. In particular, column (1) replicates the benchmark results showing the change in […] between baseline and the first follow-up visit. Columns (2) and columns (3) then re-estimate the results between baseline and the second follow-up visit, and baseline and the third follow-up visit respectively.

[1] = average treatment window of slightly under 13 days
[2] = mean treatment horizon of 22 days
[3] = mean treatment period of 7 days

C=C(C)C1CCC(C)=CC1c1c(O)cc(CCCCC)cc1O (stereo not drawn) [cannabidiol, 2-[3-methyl-6-(1-methylethenyl)-2-cyclohexen-1-yl]-5-pentyl-1,3-benzenediol]
DASS-21 Anxiety Score, Post 1-month follow-up Mean (Std. dev) (symptoms of anxiety; All (n = 146), initial mean 13.7 (8.7), p 0.000): 9.1 (6.8) | DASS-21 Anxiety Score, Post 1-month follow-up Mean (Std. dev) (symptoms of anxiety; Mod to extreme (n = 100), initial mean 17.7 (7.5), p 0.000): 11.0 (7.1) | Decrease in anxiety score (symptoms of anxiety; [1]): −6.0 | DASS-21 Anxiety Score, Post 1-month follow-up Mean (Std. dev) (symptoms of anxiety; baseline category Mild 8-9 (n = 13), initial mean 8.0 (0.0), p 0.291): 7.1 (3.0) | DASS-21 Anxiety Score, Post 1-month follow-up Mean (Std. dev) (symptoms of anxiety; baseline category Moderate 10-14 (n = 50), initial mean 12.1 (1.7), p 0.000): 8.8 (5.1) | DASS-21 Anxiety Score, Post 1-month follow-up Mean (Std. dev) (symptoms of anxiety; baseline category Normal 0-7 (n = 33), initial mean 3.9 (1.7), p 0.667): 4.2 (3.7) | DASS-21 Anxiety Score, Post 1-month follow-up Mean (Std. dev) (symptoms of anxiety; baseline category Severe 15-19 (n = 16), initial mean 17.0 (1.0), p 0.009): 10.9 (7.9) | Change in anxiety score from initial visit to first follow-up versus dosage (FIG. 6) (symptoms of anxiety; dosage amounts between 50-200 mg per day): correlated with a higher value of change indicating less symptoms of anxiety, stress and/or depression | Fall in anxiety score (symptoms of anxiety; [2]): −5.7 | Decline in anxiety score (symptoms of anxiety; [3]): −10.5 | Mean DASS-21 anxiety score over the first six months (FIG. 14) (symptoms of anxiety; patients with subthreshold and clinically significant scores at baseline): significant reduction over the 6-month period | Persistence of decrease in insomnia severity (symptoms of insomnia; after 4 and 6 months (Visits 2 and 3) of CBD only treatment): decrease in insomnia severity persists | Decrease in insomnia score (symptoms of insomnia; [1]): −5.0 | Fall in insomnia score (symptoms of insomnia; [2]): −4.1 | Decline in insomnia score (symptoms of insomnia; [3]): −7.2 | Change in ISI score between Visit 0 and Visit 3 (third follow-up) (symptoms of insomnia; patient fixed effects, N 292, baseline mean 14.145, about 6 months, SE 0.854, p < 0.001): −4.313*** | Change in ISI score between Visit 0 and Visit 2 (second follow-up) (symptoms of insomnia; patient fixed effects, N 349, baseline mean 14.145, about 4 months, SE 0.581, p < 0.001): −4.141*** | Response of ISI score to treatment (symptoms of insomnia; patients beginning in the 'no clinically significant insomnia' category): do not exhibit any meaningful response | Mean ISI scores by baseline ISI category, initial versus first follow-up visit (FIG. 10) (symptoms of insomnia; patients starting with subthreshold, moderate and severe clinical insomnia, mean 46.9 days between visits): significantly lower mean ISI scores in the first follow-up visit | Average ISI scores over the first six months (FIG. 13) (symptoms of insomnia; patients with subthreshold and clinically significant insomnia scores at baseline): significant reduction over the 6-month period | Short-term change in ISI score from baseline to first follow-up (Visit 1 coefficient) (symptoms of insomnia; pooled specification, no patient fixed effects, 228 patients, baseline mean 14.145, average 46.9 days, SE 0.393, p < 0.001): −3.254*** | Change in ISI score between visits versus cannabidiol dosage (symptoms of insomnia; prescribed between approximately 10 mg to 200 mg): report less insomnia at the first follow-up visit | Change in ISI score, Visit 1 coefficient in model with interaction terms (symptoms of insomnia; reference category 'no clinically significant insomnia' at baseline, patient fixed effects, 228 patients, SE 0.646, not significant): 0.959 | Change in ISI score, Visit 1 × subthreshold insomnia interaction coefficient (symptoms of insomnia; relative to 'no clinically significant insomnia', patient fixed effects, 228 patients, SE 0.901, p < 0.001): −3.308*** | Change in ISI score, Visit 1 × clinical insomnia (moderate severity) interaction coefficient (symptoms of insomnia; relative to 'no clinically significant insomnia', patient fixed effects, 228 patients, SE 0.970, p < 0.001): −6.231*** | Change in ISI score, Visit 1 × clinical insomnia (severe) interaction coefficient (symptoms of insomnia; relative to 'no clinically significant insomnia', patient fixed effects, 228 patients, SE 1.039, p < 0.001): −7.122*** | Change in ISI score between Visit 0 and Visit 1, by initial assessment category (symptoms of insomnia; subsample Clinical insomnia (moderate severity), 70 patients, baseline mean 17.757, SE 0.726, p < 0.001): −5.271*** | Change in ISI score between Visit 0 and Visit 1, by initial assessment category (symptoms of insomnia; subsample Clinical insomnia (severe), 43 patients, baseline mean 24.256, SE 0.823, p < 0.001): −6.163*** | Change in ISI score between Visit 0 and Visit 1, by initial assessment category (symptoms of insomnia; subsample No clinically significant insomnia, 49 patients, baseline mean 3.857, SE 0.652, not significant): 0.959 | Change in ISI score between Visit 0 and Visit 1, by initial assessment category (symptoms of insomnia; subsample Subthreshold insomnia, 66 patients, baseline mean 11.364, SE 0.631, p < 0.001): −2.349***
